Experimental data from publication PMC12423301, “Astrocytic monoamine oxidase B (MAOB)–gamma-aminobutyric acid (GABA) axis as a molecular brake on repair following spinal cord injury” (Signal Transduction and Targeted Therapy, 2025).

Legend:
rat SCI model = experiment: Western blot and GABA ELISA of rat spinal cord tissue; type: in vivo; details: PI 10w
Experimental: Approximately 24 h after drug treatment, primary mouse spinal cord astrocytes or spinal cord tissues were lysed in RIPA buffer (MB030-0050, ROCKLAND) containing protease and phosphatase inhibitors (1861280, Thermo Fisher Scientific). The protein concentration was measured using the Pierce™ BCA Protein Assay Kit (Thermo Fisher Scientific). Each sample was then used separately for Western blot or GABA ELISA analysis. Western blot analysis was performed following established protocols,[73],[74] with 20 μg of spinal cord tissue or 10 μg of astrocyte protein samples were loaded onto SDS-PAGE gels, transferred to PVDF membranes, and blocked with 5% non-fat milk. The membranes were incubated overnight at 4 °C with primary antibodies, including rabbit anti-MAOB (1:1000, Abcam), rabbit anti-BDNF (1:1000, Abcam), mouse anti-TrkB (1:1000, R&D Systems), and rabbit anti-β-actin (1:1000, Cell Signaling Technology). […] The bands were visualized using enhanced chemiluminescence, and band intensity was quantified using ImageJ software. For enzyme-linked immunosorbent assay (ELISA), GABA quantification was performed using an ELISA kit (BA-E-2500, ImmuSmol) according to the manufacturer’s instructions, utilizing 20 μg of protein extracted from spinal cord tissues.

monkey SCI model = experiment: Monkey SCI model: tissue sections and immunohistochemistry; type: in vivo, cynomolgus macaques (Macaca fascicularis)
Experimental: For the nonhuman primate SCI model, female cynomolgus macaques were anesthetized with Zoletil 50 (8–10 mg/kg; Virbac Korea) and isotropy 100. Laminectomy was performed at thoracic level 8 under X-ray guidance, and the SCI model was established using a vessel clip (Micro Serrefine Clamp, 1805501, Fine Science Tools; 60 g pressure, 19 mm) applied for 10 min. After surgery, the monkeys were monitored until full recovery, with precautions taken to prevent hypothermia and dehydration. For pressure ulcers, antibacterial drugs were administered, and sugar therapy was applied as needed.
To determine the appropriate dosing for macaques, interspecies dose translation was performed according to the U.S. FDA’s Guidance for Industry (2005), using body surface area (BSA)-based conversion with species-specific Km values.
On the basis of this calculation, two doses were selected: 3 mg/kg/day (~60% of the HED) for evaluating the minimal effective dose, and 10 mg/kg/day (approximately 2× HED) for assessing upper tolerability and therapeutic margin.
Immunohistochemistry was performed as previously described.[70] The tissue sections were blocked and treated with primary antibodies. After overnight incubation at 4 °C, species-specific fluorescent secondary antibodies were applied for visualization. The tissue sections were then stained with 4’,6-diamidino-2-phenylindole (DAPI) during mounting. This protocol allows a detailed assessment of various cellular markers involved in SCI and recovery processes.

Safety pharmacology test = details: in vivo
Experimental: (§1) Protocol No. NB_KDS_ADP1_21 Confidential administration of the test substance to rats at a dose of 50-200 mg/kg daily for 2 weeks, there were no deaths.
(§2) As a result of oral administration to rats at doses of 30, 50, 75 and 100 mg/kg once daily for 4 weeks, […]
(§3) testis, epididymis and lungs. Renal epithelial hyperplasia and inflammatory cells infiltration in the renal pelvis observed in the male and female dose groups of 75 mg/kg or more, germ cell degeneration/loss and seminiferous tubules atrophy observed in the male dose groups of 75 mg/kg or more, and vacuole/degeneration of outer medullary tubules and basophilic tubules observed in the female dose groups were judged to be adverse effects due to administration of the test substance. […] Accordingly, in repeated administrations of rats for 4 weeks, the NOAEL(No Observed Adverse Effect Level) was determined to be 50 mg/kg/day for males and 30 mg/kg for females. […]
(§4) In a pharmacokinetic study, plasma PK parameters were measured after a single oral administration of […]
(§5) a result of measuring excretion into urine, feces, expiration, and bile, 6.9% was excreted in urine and 48.5% in feces, respectively, up to 168 hours after administration. Excretion to air through respiration was about 0.0% until 48 hours after administration, and 44.1% of the administered radioactivity concentration was present in the body (carcass). […]

hERG = hERG (Homo sapiens, UniProt Q12809); experiment: hERG assay; type: biochemical
Experimental: as §1, §2, §3, §4, §5

[1] = Genetic toxicology (reverse mutation, chromosomal aberration, micronucleus)
Experimental: as §1, §2
testis, epididymis and lungs. Renal epithelial hyperplasia and inflammatory cells infiltration in the renal pelvis observed in the male and female dose groups of 75 mg/kg or more, germ cell degeneration/loss and seminiferous tubules atrophy observed in the male dose groups of 75 mg/kg or more, and vacuole/degeneration of outer medullary tubules and basophilic tubules observed in the female dose groups were judged to be adverse effects due to administration of the test substance. Proximal tubular hyaline granules in the kidney, basophilic tubules, testicular germ cell degeneration/loss, and alveolar macrophage aggregation in the lungs(females) were observed even after a 2-week recovery period. Accordingly, in repeated administrations of rats for 4 weeks, the NOAEL(No Observed Adverse Effect Level) was determined to be 50 mg/kg/day for males and 30 mg/kg for females. As a result of repeated oral administrations of 0, 25, 50 or 100 mg/kg/day for 2 weeks to Cynomolgus […]
male dose group of 50 mg/kg/day, and a distal tubule/collecting duct dilatation and papillary duct epithelial cell […]
the NOAEL was judged as 40 mg/kg for both males and females. As a result of the safety pharmacology test, […]
the genetic toxicology, the reverse mutation test, the chromosomal aberration assay, and the micronucleus assay […]
as §4, §5

[2] = 14C radiolabeled KDS2010 disposition and excretion in rats; type: in vivo, SD rats
Experimental: Protocol No. NB_KDS_ADP1_21 Confidential
In a pharmacokinetic study, plasma PK parameters were measured after a single oral administration of
5.2. Rationale for Selection of Dose and Duration of Dosing
According to the FDA guideline (Estimating the Maximum Safe Starting Dose in Initial Clinical Trials for […]

[3] = Preclinical pharmacokinetics in monkeys; details: cynomolgus monkey, in vivo, iv, 5 mg/kg
in vivo = details: both, cynomolgus monkey, po
[4] = BDC rats, until 48 hours after oral administration
[5] = up to 168 hours after administration

Sequence of hERG (Q12809 whole entry): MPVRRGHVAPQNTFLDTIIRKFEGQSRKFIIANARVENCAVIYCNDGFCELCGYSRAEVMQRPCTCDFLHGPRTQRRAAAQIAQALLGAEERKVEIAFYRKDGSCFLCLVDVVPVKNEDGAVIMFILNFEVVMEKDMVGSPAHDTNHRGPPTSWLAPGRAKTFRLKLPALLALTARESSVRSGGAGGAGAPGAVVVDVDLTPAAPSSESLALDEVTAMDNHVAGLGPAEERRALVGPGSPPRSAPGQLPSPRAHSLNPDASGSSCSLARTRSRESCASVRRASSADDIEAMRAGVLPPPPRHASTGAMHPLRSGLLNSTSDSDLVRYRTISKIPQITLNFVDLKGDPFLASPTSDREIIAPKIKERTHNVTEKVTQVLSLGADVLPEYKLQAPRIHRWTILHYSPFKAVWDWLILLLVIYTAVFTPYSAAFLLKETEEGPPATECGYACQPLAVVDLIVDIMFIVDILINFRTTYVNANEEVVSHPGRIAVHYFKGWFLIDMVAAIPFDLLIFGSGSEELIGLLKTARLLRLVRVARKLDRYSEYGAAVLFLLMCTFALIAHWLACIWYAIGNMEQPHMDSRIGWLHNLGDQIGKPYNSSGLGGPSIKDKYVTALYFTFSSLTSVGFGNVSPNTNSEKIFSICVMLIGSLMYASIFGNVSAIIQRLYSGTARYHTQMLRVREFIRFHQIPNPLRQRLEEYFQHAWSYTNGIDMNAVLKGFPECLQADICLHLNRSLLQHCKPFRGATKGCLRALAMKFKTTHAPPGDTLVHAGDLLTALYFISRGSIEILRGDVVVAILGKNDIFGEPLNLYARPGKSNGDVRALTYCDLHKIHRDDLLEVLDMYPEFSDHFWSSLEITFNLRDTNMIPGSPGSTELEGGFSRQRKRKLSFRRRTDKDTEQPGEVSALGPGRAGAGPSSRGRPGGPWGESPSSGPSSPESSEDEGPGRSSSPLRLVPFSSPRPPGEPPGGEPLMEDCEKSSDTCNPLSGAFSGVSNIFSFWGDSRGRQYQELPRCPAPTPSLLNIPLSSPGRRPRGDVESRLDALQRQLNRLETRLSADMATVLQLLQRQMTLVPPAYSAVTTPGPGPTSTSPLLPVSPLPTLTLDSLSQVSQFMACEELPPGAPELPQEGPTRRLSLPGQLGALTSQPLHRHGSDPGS

With CS(=O)(=O)O.C[C@H](NCc1ccc(-c2ccc(C(F)(F)F)cc2)cc1)C(N)=O [KDS2010, (S)-2-(((4’-Trifluoromethylbiphenyl-4-yl)methyl)amino)propanamide methane-sulfonate] the “GABA levels (ELISA)” value (rat SCI model; SCI + KDS 1 d/Re) was “significant reduction”, the “MAOB protein level (Western blotting)” value (rat SCI model; SCI+KDS 1d/Re vs SCI+V) was “significantly reduced” and the “hematoma and cavity formation at the injury site” value (monkey SCI model; 3 or 10 mpk from the acute phase, PI 5w) was “significantly reduced”. The “MAP2 intensity vs SCI + V” value (monkey SCI model; SCI + KDS 3 mpk, PI 5w) was “tended to increase”, the “MAP2 intensity vs SCI + V” value (monkey SCI model; SCI + KDS 10 mpk, PI 5w) was “significantly greater” and the “astrocytic MAOB” value (monkey SCI model; both KDS treatment groups (3 and 10 mpk), PI 5w) was “significantly reduced”. The “pharmacologically active dose (PAD)” value (monkey SCI model; cynomolgus macaques, for 5 weeks) was 3 mpk, the “effects on central nervous system, respiratory system, and cardiovascular system” value (Safety pharmacology test) was “no effect” and the IC50 (hERG) was 7.8 ± 1.7 µM. For the same compound, the chromosomal aberration assay [1] was “negative”, the micronucleus assay [1] was “negative” and the reverse mutation test [1] was “negative”. For the same compound, the “administered radioactivity present in the body (carcass)” value ([2]; 14C radiolabeled, oral 10 mg/kg) was 44.1%, the excreted in bile ([2]; BDC (bile duct-cannulated) rats, until 48 hours after oral administration) was 71.5% and the excreted in feces [2, 4] was 6.0%. The excreted in urine [2, 4] was 6.8%, the “excretion to air through respiration” value ([2]; until 48 hours after administration) was “about 0.0%” and the excreted in feces [2, 5] was 48.5%. The excreted in urine [2, 5] was 6.9%, the AUC(0-inf) [3] was 17900 ± 2460 ng·h/mL and the half-life ([3]; t1/2) was 8.65 ± 0.97 h. The NOAEL at 4 weeks (in vivo) was 40 mg/kg.
